# Source: article PMC3432467 (2012)
# Target: flavodoxin II (apoflavodoxin) (Azotobacter vinelandii, UniProt P00324, C70A)
# Assay: FMN fluorescence increase on dilution of holoprotein
# Format: binding
# flavodoxin II (apoflavodoxin), sequence (P00324 2-180 C70A): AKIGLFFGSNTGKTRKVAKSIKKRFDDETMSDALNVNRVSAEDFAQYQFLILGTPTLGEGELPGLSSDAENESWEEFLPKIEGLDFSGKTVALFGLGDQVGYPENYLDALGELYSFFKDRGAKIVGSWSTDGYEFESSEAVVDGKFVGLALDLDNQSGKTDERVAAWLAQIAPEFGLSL
smiles,measurement,value
Cc1cc2nc3c(=O)[nH]c(=O)nc-3n(C[C@H](O)[C@H](O)[C@H](O)COP(=O)(O)O)c2cc1C [flavin mononucleotide],Kd,3.82 pM
